Data from patent US9249129B2, “Morpholino substituted urea derivatives as mTOR inhibitors” (CELLZOME LIMITED, priority 2010, dated 2016).

Key:
Assay in all cases: kinobeads assay with mass spectrometry detection of kinases (kinase selectivity profile)
Type in all cases: binding
kinases (kinome) [1] = biological target: T1, kinases (kinome) (Homo sapiens, UniProt P42336); details: PIK3Ca (Lipid Kinase), IPI00031386
T1 construct: determined in kinobeads assays with mass spectrometry detection of kinases as described previously; endogenous in cells; host or cells: cell lysate
T1 sequence (P42336 whole entry): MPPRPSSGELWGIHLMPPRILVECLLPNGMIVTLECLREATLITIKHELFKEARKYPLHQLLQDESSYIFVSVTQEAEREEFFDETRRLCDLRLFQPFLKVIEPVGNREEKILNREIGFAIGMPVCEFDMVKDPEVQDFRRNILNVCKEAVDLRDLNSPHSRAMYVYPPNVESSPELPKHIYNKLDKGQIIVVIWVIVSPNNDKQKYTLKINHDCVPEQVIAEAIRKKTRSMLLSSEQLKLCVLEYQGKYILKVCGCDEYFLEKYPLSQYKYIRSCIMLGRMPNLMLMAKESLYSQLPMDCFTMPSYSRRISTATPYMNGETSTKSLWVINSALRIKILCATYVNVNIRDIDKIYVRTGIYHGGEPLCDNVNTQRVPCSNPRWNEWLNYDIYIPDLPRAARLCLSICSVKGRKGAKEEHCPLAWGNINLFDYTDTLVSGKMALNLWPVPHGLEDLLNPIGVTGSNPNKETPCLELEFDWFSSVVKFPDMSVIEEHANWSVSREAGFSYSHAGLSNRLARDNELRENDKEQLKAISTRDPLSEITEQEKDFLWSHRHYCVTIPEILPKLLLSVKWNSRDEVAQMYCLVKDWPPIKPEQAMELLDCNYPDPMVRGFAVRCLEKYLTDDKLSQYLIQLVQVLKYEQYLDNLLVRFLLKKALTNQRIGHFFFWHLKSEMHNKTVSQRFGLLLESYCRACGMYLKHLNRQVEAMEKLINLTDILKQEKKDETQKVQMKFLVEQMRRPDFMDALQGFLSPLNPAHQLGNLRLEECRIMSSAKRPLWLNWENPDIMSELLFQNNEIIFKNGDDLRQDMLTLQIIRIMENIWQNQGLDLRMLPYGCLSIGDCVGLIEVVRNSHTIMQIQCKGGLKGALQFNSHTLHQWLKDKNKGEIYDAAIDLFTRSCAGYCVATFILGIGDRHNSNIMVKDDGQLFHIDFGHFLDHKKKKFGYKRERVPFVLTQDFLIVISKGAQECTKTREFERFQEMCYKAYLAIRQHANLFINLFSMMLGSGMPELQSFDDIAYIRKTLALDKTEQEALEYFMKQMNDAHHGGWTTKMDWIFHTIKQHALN
From the text: (§1) The protein kinase complement of the human genome (the kinome) was described previously (Manning et al., 2002. Science 298(5600):1912-1934). Sequence accession numbers are defined by the International Protein Index (IPI) (Kersey et al., 2004. Proteomics 4(7):1985-1988).

kinases (kinome) [2] = biological target: T2, kinases (kinome) (Homo sapiens, UniProt P49841); details: GSK3B (CMGC), IPI00216190
T2 construct: determined in kinobeads assays with mass spectrometry detection of kinases as described previously; endogenous in cells; host or cells: cell lysate
From the text: as §1

kinases (kinome) [3] = biological target: T3, kinases (kinome) (Homo sapiens, UniProt O00329); details: PIK3Cd (Lipid Kinase), IPI00384817
T3 construct: determined in kinobeads assays with mass spectrometry detection of kinases as described previously; endogenous in cells; host or cells: cell lysate
T3 sequence (O00329 1-1044): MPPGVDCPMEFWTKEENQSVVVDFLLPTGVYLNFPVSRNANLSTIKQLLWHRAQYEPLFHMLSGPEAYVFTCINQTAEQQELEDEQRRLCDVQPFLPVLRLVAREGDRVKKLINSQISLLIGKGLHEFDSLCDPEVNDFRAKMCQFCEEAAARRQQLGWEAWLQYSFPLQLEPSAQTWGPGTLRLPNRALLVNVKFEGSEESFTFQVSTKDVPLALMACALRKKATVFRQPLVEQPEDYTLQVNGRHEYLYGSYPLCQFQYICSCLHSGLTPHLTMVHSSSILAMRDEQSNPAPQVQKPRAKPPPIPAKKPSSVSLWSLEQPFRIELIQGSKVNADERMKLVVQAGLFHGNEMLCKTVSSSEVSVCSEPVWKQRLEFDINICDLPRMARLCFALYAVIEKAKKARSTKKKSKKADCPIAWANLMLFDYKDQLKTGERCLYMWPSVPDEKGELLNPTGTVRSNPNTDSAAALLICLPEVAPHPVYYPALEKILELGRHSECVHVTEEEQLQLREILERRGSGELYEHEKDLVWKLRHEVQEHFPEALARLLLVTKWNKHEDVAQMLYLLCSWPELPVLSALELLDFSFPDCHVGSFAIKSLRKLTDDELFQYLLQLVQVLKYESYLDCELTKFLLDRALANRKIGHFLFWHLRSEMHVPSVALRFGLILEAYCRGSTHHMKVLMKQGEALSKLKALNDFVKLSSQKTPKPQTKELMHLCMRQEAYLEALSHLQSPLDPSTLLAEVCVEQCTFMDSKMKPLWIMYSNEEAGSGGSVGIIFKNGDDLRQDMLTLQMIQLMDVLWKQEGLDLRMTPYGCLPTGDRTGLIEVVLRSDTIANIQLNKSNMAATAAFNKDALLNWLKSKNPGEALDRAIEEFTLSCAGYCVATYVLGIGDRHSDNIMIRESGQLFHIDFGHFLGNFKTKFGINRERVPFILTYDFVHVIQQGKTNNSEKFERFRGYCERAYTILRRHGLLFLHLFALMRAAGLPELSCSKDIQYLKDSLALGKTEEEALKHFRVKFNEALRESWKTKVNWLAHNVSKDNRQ
From the text: as §1

kinases (kinome) [4] = biological target: T4, kinases (kinome) (Homo sapiens, UniProt Q8IU85); details: CaMK1d (CAMK), IPI00170508
T4 construct: determined in kinobeads assays with mass spectrometry detection of kinases as described previously; endogenous in cells; host or cells: cell lysate
T4 sequence (Q8IU85 whole entry): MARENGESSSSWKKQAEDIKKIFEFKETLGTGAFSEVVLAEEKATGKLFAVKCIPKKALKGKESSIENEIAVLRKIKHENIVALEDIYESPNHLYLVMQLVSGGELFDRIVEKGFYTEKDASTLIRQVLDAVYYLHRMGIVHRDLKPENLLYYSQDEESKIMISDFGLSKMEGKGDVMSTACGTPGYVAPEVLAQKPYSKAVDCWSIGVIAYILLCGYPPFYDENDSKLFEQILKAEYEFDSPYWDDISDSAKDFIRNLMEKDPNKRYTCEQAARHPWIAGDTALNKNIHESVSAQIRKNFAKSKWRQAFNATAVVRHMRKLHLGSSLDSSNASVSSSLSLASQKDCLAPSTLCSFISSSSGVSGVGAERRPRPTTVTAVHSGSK
From the text: as §1

kinases (kinome) [5] = biological target: T5, kinases (kinome) (Homo sapiens, UniProt P53667); details: LIMK1 (TKL), IPI00291702
T5 construct: determined in kinobeads assays with mass spectrometry detection of kinases as described previously; endogenous in cells; host or cells: cell lysate
T5 sequence (P53667 whole entry): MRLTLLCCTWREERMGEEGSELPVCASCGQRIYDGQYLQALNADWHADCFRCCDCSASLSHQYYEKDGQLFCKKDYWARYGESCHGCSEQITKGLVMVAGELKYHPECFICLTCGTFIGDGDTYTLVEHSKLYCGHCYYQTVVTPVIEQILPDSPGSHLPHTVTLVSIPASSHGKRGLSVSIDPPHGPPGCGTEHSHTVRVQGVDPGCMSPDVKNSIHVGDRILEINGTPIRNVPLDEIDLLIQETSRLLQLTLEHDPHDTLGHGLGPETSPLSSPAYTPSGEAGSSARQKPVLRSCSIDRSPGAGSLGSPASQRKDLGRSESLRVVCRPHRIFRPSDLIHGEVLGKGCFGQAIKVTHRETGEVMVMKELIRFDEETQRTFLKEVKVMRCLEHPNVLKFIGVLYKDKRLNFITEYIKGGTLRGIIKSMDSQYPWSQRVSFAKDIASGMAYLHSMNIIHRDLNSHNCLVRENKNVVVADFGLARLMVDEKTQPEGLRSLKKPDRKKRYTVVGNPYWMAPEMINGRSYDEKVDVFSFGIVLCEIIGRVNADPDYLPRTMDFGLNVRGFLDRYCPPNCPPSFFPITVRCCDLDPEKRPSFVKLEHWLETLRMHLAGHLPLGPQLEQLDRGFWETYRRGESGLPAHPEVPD
From the text: as §1

kinases (kinome) [6] = biological target: T6, kinases (kinome) (Homo sapiens, UniProt Q06187); details: BTK (TK), IPI00029132
T6 construct: determined in kinobeads assays with mass spectrometry detection of kinases as described previously; endogenous in cells; host or cells: cell lysate
T6 sequence (Q06187 whole entry): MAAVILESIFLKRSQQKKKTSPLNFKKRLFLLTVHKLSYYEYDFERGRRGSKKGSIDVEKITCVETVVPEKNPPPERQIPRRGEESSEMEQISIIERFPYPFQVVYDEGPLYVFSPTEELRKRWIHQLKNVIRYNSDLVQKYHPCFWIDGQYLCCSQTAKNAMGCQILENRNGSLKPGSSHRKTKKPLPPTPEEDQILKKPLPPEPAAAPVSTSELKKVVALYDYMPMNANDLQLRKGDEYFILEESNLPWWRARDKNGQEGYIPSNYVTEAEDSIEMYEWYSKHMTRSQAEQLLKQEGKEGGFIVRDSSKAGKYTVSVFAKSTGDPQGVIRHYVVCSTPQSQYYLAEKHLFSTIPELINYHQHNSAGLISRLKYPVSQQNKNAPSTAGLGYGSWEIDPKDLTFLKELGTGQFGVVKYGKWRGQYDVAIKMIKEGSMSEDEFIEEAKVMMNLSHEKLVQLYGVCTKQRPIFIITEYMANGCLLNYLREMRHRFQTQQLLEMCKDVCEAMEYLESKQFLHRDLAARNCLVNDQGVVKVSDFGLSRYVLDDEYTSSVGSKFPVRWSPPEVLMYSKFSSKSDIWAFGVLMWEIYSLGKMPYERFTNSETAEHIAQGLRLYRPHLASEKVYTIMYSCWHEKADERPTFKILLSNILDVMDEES
From the text: as §1

kinases (kinome) [7] = biological target: T7, kinases (kinome) (Homo sapiens, UniProt Q9Y4K4); details: KHS1 (STE), IPI00294842
T7 construct: determined in kinobeads assays with mass spectrometry detection of kinases as described previously; endogenous in cells; host or cells: cell lysate
T7 sequence (Q9Y4K4 whole entry): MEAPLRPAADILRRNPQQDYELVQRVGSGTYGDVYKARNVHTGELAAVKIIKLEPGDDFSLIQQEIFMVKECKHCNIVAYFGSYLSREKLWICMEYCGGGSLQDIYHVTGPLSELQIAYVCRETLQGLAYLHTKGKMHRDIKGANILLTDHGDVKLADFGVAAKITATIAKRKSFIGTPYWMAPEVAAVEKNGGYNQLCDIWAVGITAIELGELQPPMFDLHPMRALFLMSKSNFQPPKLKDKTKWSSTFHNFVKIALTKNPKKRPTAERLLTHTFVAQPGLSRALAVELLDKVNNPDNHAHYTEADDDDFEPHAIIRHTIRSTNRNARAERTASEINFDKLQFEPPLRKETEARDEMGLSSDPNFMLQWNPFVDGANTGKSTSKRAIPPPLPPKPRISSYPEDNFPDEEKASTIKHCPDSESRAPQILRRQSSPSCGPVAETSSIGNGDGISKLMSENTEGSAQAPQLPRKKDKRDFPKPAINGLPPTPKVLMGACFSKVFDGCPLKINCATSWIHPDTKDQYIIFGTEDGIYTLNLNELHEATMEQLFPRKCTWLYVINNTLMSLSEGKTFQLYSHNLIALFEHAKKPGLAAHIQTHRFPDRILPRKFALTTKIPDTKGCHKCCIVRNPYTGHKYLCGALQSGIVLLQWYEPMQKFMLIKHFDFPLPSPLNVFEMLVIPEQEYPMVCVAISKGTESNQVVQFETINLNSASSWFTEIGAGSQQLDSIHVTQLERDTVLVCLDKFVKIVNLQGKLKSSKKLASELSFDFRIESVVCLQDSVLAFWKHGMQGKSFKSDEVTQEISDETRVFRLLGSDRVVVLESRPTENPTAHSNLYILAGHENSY
From the text: as §1

kinases (kinome) [8] = biological target: T8, kinases (kinome) (Homo sapiens, UniProt P24941); details: CDK2 (CMGC), IPI00031681
T8 construct: determined in kinobeads assays with mass spectrometry detection of kinases as described previously; endogenous in cells; host or cells: cell lysate
From the text: as §1

kinases (kinome) [9] = biological target: T9, kinases (kinome) (Homo sapiens, UniProt P51451); details: BLK (TK), IPI00554756
T9 construct: determined in kinobeads assays with mass spectrometry detection of kinases as described previously; endogenous in cells; host or cells: cell lysate
T9 sequence (P51451 whole entry): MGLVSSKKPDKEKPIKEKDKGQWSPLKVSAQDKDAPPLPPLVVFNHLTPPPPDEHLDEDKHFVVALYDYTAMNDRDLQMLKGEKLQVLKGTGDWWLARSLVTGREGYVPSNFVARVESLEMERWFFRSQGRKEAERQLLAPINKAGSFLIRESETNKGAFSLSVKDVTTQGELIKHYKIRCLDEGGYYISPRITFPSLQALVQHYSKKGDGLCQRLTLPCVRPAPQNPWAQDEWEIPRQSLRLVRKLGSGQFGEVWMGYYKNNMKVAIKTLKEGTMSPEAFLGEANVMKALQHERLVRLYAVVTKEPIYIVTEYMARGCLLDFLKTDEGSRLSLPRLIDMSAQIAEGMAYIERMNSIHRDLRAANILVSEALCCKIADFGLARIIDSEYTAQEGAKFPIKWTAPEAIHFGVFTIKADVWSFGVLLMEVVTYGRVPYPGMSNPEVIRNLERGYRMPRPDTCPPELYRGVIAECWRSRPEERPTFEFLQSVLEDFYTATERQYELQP
From the text: as §1

kinases (kinome) [10] = biological target: T10, kinases (kinome) (Homo sapiens, UniProt P05771); details: PKCb (AGC), IPI00219628
T10 construct: determined in kinobeads assays with mass spectrometry detection of kinases as described previously; endogenous in cells; host or cells: cell lysate
T10 sequence (P05771 whole entry): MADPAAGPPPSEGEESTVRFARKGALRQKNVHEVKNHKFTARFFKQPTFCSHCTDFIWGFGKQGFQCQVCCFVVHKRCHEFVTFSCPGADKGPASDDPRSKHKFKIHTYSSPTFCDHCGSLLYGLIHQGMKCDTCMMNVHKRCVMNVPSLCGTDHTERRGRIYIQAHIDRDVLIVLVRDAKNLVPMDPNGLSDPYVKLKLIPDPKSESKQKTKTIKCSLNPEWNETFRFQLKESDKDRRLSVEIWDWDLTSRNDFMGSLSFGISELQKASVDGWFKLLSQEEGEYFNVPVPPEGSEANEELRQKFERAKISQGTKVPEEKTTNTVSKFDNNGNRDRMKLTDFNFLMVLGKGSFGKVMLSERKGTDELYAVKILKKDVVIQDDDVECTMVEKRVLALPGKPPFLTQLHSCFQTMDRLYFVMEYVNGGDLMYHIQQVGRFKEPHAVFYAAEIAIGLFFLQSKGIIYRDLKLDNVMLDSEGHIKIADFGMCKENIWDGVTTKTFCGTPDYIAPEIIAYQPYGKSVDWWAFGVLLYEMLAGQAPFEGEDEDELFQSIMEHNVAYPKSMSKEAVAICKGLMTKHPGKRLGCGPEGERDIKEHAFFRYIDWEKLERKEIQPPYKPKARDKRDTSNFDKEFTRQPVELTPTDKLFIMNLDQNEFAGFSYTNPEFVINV
From the text: as §1

kinases (kinome) [11] = biological target: T11, kinases (kinome) (Homo sapiens, UniProt P42684); details: ARG (TK), IPI00329488
T11 construct: determined in kinobeads assays with mass spectrometry detection of kinases as described previously; endogenous in cells; host or cells: cell lysate
From the text: as §1

kinases (kinome) [12] = biological target: T12, kinases (kinome) (Homo sapiens, UniProt O14965); details: AurA (Other), IPI00298940
T12 construct: determined in kinobeads assays with mass spectrometry detection of kinases as described previously; endogenous in cells; host or cells: cell lysate
T12 sequence (O14965 1-403): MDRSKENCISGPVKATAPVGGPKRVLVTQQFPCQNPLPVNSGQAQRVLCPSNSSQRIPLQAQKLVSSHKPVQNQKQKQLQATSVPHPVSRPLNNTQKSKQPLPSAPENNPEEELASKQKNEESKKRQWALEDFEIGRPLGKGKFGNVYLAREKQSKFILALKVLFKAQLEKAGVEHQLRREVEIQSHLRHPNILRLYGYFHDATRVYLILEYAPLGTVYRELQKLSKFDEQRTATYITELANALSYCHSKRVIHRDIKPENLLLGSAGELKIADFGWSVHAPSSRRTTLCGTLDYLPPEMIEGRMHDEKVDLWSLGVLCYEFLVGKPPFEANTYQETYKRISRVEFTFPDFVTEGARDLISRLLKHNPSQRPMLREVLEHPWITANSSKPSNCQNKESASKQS
From the text: as §1

Measured: IC50

C[C@H]1COCCN1c1nc(-c2ccc(NC(=O)N[C@H]3CCC[C@@H]3O)cc2)cc(-c2cc(F)ccc2S(C)(=O)=O)n1 [Example 76, 1-(4-(6-(5-fluoro-2-(methylsulfonyl)phenyl)-2-((S)-3-methylmorpholino)pyrimidin-4-yl)phenyl)-3-((1S,2S)-2-hydroxycyclopentyl)urea]
> 10 µM: all assays above

C[C@H]1COCCN1c1nc(-c2ccc(NC(=O)NC3CC3)cc2)cc(-c2ccccc2S(C)(=O)=O)n1 [Example 4, (S)-1-cyclopropyl-3-(4-(2-(3-methylmorpholino)-6-(2-(methylsulfonyl)phenyl)pyrimidin-4-yl)phenyl)urea]
> 10 µM: all assays above

C[C@H]1COCCN1c1cc(-c2ccccc2S(C)(=O)=O)nc(-c2ccc(NC(=O)NC3CC3)cc2)n1 [Example 6, (S)-1-cyclopropyl-3-(4-(4-(3-methylmorpholino)-6-(2-(methylsulfonyl)phenyl)pyrimidin-2-yl)phenyl)urea]
> 10 µM: all assays above

C[C@H]1COCCN1c1cc(-c2ccccn2)nc(-c2ccc(NC(=O)NCCO)cc2)n1 [Example 43, (S)-1-(2-hydroxyethyl)-3-(4-(4-(3-methylmorpholino)-6-(pyridin-2-yl)pyrimidin-2-yl)phenyl)urea]
> 10 µM: all assays above

C[C@H]1COCCN1c1nc(-c2ccc(NC(=O)NC3CC3)cc2)cc(-c2cccnc2S(C)(=O)=O)n1 [Example 46, (S)-1-cyclopropyl-3-(4-(2-(3-methylmorpholino)-6-(2-(methylsulfonyl)pyridin-3-yl)pyrimidin-4-yl)phenyl)urea]
> 10 µM: all assays above

CCNC(=O)Nc1ccc(-c2cc(-c3ccccc3C#N)nc(N3CCOC[C@@H]3C)n2)cc1 [Example 8, (S)-1-(4-(6-(2-cyanophenyl)-2-(3-methylmorpholino)pyrimidin-4-yl)phenyl)-3-ethylurea]
> 10 µM: all assays above

C[C@H]1COCCN1c1nc(-c2ccc(NC(=O)NC3CC3)cc2)cc(-c2cc(F)ccc2S(C)(=O)=O)n1 [Example 40, (S)-1-cyclopropyl-3-(4-(6-(5-fluoro-2-(methylsulfonyl)phenyl)-2-(3-methylmorpholino)pyrimidin-4-yl)phenyl)urea]
> 10 µM: all assays above
